Test results reported in patent US10086045B2, “Methods of treatment using stem cell mobilizers” (THE JOHNS HOPKINS UNIVERSITY, priority 2010, dated 2018).

Experiments:
C57BL/6 mice = assay: Rodent model of acute liver failure: CCl4 dose finding (survival, serum transaminases); format: in vivo
Description: FIG. 1A-1C describes mortality and hepatic injury after injection of carbon tetrachloride (CCl4). FIG. 1A is a graph showing percent survival over four days among groups (n=10) of mice administered intraperitoneal injections of CCL4 at doses of 2 ml/kg (solid line), 3 ml/kg (dashed line), 4 ml/kg (diamond markers), or 4.5 ml/kg (circle markers). FIG. 1B is a graph displaying peak liver function test (LF) results, specifically, serum aspartate transaminase (AST) (dark bars) and alanine transaminase (ALT) (light bars) levels in mice (n=2) 24 hrs and 96 hrs after intraperitoneal injection of CCL4 at 4 ml/kg compared to baseline levels in uninjected animals (0 hrs).
Rodent models of Acute Liver Failure.
The large majority of animals in this group were transiently ill but rapidly regained vigor. […] A dose of 4 ml/kg would result in about 60% to 100% mortality among the animals over the course of three to seven days. Slight adjustments in the dose (i.e., 4.5 ml/kg) at this level would have obvious effects on mortality with all animals succumbing within 24-48 hours.
A dose of 4 ml/kg was eventually selected for the final model. Mortality with this dose was typically about 80% around five days and was preceded by a significant elevation in serum transaminases. AST and ALT levels peaked at approximately 5,000 on day one to two after injury (FIG. 1B).

[1] = system: human immunodeficiency virus (HIV); conditions: cited from earlier work
[2] = system: CD34+ HSCs / peripheral white blood cells; assay: HSC mobilization in rats, flow cytometric analysis of peripheral blood; format: in vivo; conditions: for peripheral CD34+ absolute count / total lymphocyte count: single dose; for average total WBC: single sc dose (plerixafor 2 mg/kg, G-CSF 300 μg/kg), n=3
Description: Rats (n=3 per treatment group) were administered a single dose of plerixafor (2 mg/kg), G-CSF (300 μg/kg) or both. In FIG. 2A, peripheral total white blood cell (WBC) count, total lymphocytes, and CD34^+ cells were measured in […] by FACS analysis at 1 hr and 6 hrs after injection. […] See Mozobil (plerixafor injection) Product Monograph 2009 (Genzyme Corporation, Cambridge, Mass.).
Mobilization of HSCs. For HSC mobilization, plerixafor and G-CSF were administered by subcutaneous injection at weight-based doses consistent with those that have proven effective in human clinical trials or as has been used previously by the present inventors (plerixafor, 2 mg/kg/dose; G-CSF 300 μg/kg/dose). Plerixafor and G-CSF were administered 12-hours following CCl4 injection, in treatment groups comprised of eight to ten animals. Control treatment groups were administered an injection with an equivalent volume of saline.
Flow Cytometric Analysis of Peripheral Blood. Following HSC mobilization, animals were sacrificed at either one or six hours post treatment and blood was collected. Leukocyte suspensions (1×10^6) of peripheral blood were analyzed for CD34, Thy-1 and c-Kit expression. Nonspecific antibody binding was blocked with mouse and donkey serum (Sigma) for 30 minutes. The cells were incubated with Alexa Fluor 647 conjugated mouse anti-rat CD34 (1:10) (Santa Cruz Biotechnology), fluorescein isothiocyanate (FITC)-conjugated mouse anti-rat CD90 (Thy-1, 1:100) (BD Pharmingen), and rabbit anti-rat c-Kit (1:100) (Santa Cruz Biotechnology) for 45 minutes at 4° C., followed by phycoerythrin (PE)-conjugated donkey anti-rabbit IgG (1:200) (eBioscience) for 30 minutes at 4° C. The CD34, Thy-1 and c-Kit positive cells were counted by flow cytometry using CELLQuest software (Becton-Dickinson).

CXCR4 receptor = conditions: mutated receptor (not named); cited from earlier work
[3] = system: CD34+ stem cells in peripheral blood; conditions: pigs
Description: The dosage of plerixafor used in swine transplants was based on the experiments in rats. It is possible that the effective dosage of plerixafor will differ among species. The efficacy of plerixafor was tested in non-transplanted pigs and blood cell count and flow cytometric analysis were used to measure CD34^+ stem cells in peripheral blood.

CD34+ cells / HSCs = conditions: healthy volunteers; cited from earlier work
[4] = CCl4 4 ml/kg, day one to two after injury

Molecule	mortalities per ten animals (C57BL/6 mice; CCl4 2 ml/kg intraperitoneal, within first one to two days)	mortality (C57BL/6 mice; CCl4 4 ml/kg, around five days)	peak serum ALT level (C57BL/6 mice; [4])	peak serum AST level (C57BL/6 mice; [4])	time within which all animals succumbed (C57BL/6 mice; CCl4 4.5 ml/kg) [h]	anti-HIV efficacy in vivo [1]	peripheral CD34+ absolute count ([2]; one hour) [cells/ml]	total lymphocyte count ([2]; one hour)	peripheral CD34+ absolute count ([2]; six hours) [cells/ml]	total lymphocyte count ([2]; six hours)	average total WBC ([2]; 1 hour)	average total WBC ([2]; 6 hours)	affinity of mutated receptor relative to affinity in CXCR4 (CXCR4 receptor) [fold]	increase in affinity after introduction of Glu at VII:06 and removal of Lys at VII:02 (CXCR4 receptor) [fold]	time of peak CD34+ cell levels ([3]; after subcutaneous injection) [h]	difference in number of CD34+ cells between 1 mg/kg and 2 mg/kg ([3]; at 2, 3 and 6 hours after injection)	absolute number of CD34+ cells per ml blood ([3]; subcutaneous injection, time-dependent)	mobilization of HSCs to the periphery (CD34+ cells / HSCs)
ClC(Cl)(Cl)Cl [CCL4, carbon tetrachloride]	one or two	about 80%	approximately 5,000	approximately 5,000	24 to 48													
c1cc(CN2CCCNCCNCCCNCC2)ccc1CN1CCCNCCNCCCNCC1 [plerixafor, 1,1′-[1,4-phenylenebis(methylene)]bis-1,4,8,11-tetraazacyclo-tetradecane]						not an effective anti-HIV agent	333	4,400	135	4,800	6,100	7,300	≤ 10	1000	3	no significant difference	significantly increased	massive mobilization
G-CSF: granulocyte colony stimulating factor, stem cell mobilizer (protein, UniProt P09919 31-207, looked up) Granulocyte …: TPLGPASSLPQSFLLKCLEQVRKIQGDGAALQEKLVSECATYKLCHPEELVLLGHSLGIPWAPLSSCPSQALQLAGCLSQLHSGLFLYQGLLQALEGISPELGPTLDTLQLDVADFATTIWQQMEELGMAPALQPTQGAMPAFASAFQRRAGGVLVASHLQSFLEVSYRVLRHLAQP							216	2,000	238	4,100	3,300	7,800						
